Laboratory results published in patent US20190211002A1, “NOVEL TRIAZOLE DERIVATIVES” (Bayer CropScience Aktiengesellschaft, priority 2016, published 2019).

Assays:
Uromyces appendiculatus = test: Example D: in vivo preventive test on Uromyces appendiculatus (bean rust); settings: 264 h, 500 ppm of active ingredient, preventive spray, evaluated 11 days after inoculation, read-out: efficacy
Method: (§1) The test is evaluated 11 days after the inoculation.

[1] = LogP by HPLC on reversed phase columns (EEC directive 79/831 Annex V.A8); format: physicochemical; settings: reversed phase HPLC column, method [a]: LC-UV, acidic range, 0.1% formic acid in water and acetonitrile as eluent
Method: Measurement of LogP values was performed according to EEC directive 79/831 Annex V.A8 by HPLC (High Performance Liquid Chromatography) on reversed phase columns with the following methods: • ^[a] […] Lambda-max-values were determined using UV-spectra from 200 nm to 400 nm and the peak values of the chromatographic signals.

Puccinia recondita = test: Example A: in vivo preventive test on Puccinia recondita (brown rust on wheat); settings: 264 h, 500 ppm of active ingredient, preventive spray, evaluated 11 days after inoculation, read-out: efficacy
Method: as §1

Sphaerotheca fuliginea [2] = test: Example F: in vivo preventive test on Sphaerotheca (cucumbers), comparison vs. known phenoxy-phenyl compounds; settings: rate of application 10 ppm, evaluated 7 days after inoculation
Method: • Solvent: 24.5 parts by weight of acetone • 24.5 parts by weight of dimethylacetamide • Emulsifier: 1 part by weight of alkylaryl polyglycol ether
To produce a suitable preparation of active compound, 1 part by weight of active compound is mixed with the above stated amounts of solvent and emulsifier, and the concentrate is diluted with water to the desired concentration.
(§2) To test for preventive activity, young plants are sprayed with the preparation of active compound at the stated rate of application. After the spray coating has dried on, the plants are inoculated with an aqueous spore suspension of Sphaerotheca fuliginea. The plants are then placed in a greenhouse at approximately 23° C. and a relative atmospheric humidity of approximately 70%.
The test is evaluated 7 days after the inoculation.

Sphaerotheca fuliginea [3] = test: Example H: in vivo preventive test on Sphaerotheca (cucumbers), comparison vs. WO-A 2010/146116; settings: evaluated 7 days after inoculation
Method: as §2, with “To produce a suitable preparation of active compound, 1 part by weight of active compound is mixed with the stated amounts of solvent and emulsifier, and the concentrate is diluted with water to the desired concentration. To” for “To”, “70%. The test is evaluated 7 days after the inoculation.” for “70%.”

[4] = system: Blumeria graminis f sp. hordei; test: Example E: in vivo preventive Blumeria test (barley); settings: 168 h, 500 ppm of active ingredient, preventive spray, evaluated 7 days after inoculation, read-out: efficacy
Method: • Solvent: 49 parts by weight of N,N-dimethylacetamide • Emulsifier: 1 part by weight of alkylaryl polyglycol ether To produce a suitable preparation of active compound, 1 part by weight of active compound or active compound combination was mixed with the stated amounts of solvent and emulsifier, and the concentrate was diluted with water to the desired concentration. To test for preventive activity, young plants were sprayed with the preparation of active compound or active compound combination at the stated rate of application. After the spray coating had been dried, the plants were dusted with spores of Blumeria graminis f sp. hordei. The plants were placed in the greenhouse at a temperature of approximately 18° C. and a relative atmospheric humidity of approximately 80% to promote the development of mildew pustules. The test was evaluated 7 days after the inoculation.

Sphaerotheca fuliginea [5] = test: Example C: in vivo preventive test on Sphaerotheca fuliginea (powdery mildew on cucurbits); settings: Podosphaera fuliginea, 360 h; 500 ppm of active ingredient; gherkin; preventive spray; evaluated 15 days after inoculation; read-out: efficacy
Method: The test is evaluated 15 days after the inoculation.

Septoria tritici = test: Example G: in vivo 5 days preventive Septoria tritici test (wheat), comparison vs. WO-A 2010/146116; settings: inoculated 5 days after spraying, evaluated 21 days after inoculation
Method: • Solvent: 49 parts by weight of N,N-dimethylacetamide • Emulsifier: 1 part by weight of alkylaryl polyglycol ether To produce a suitable preparation of active compound, 1 part by weight of active compound or active compound combination is mixed with the stated amounts of solvent and emulsifier, and the concentrate is diluted with water to the desired concentration. To test for preventive and long-lasting activity, young plants are sprayed with a preparation of active compound or active compound combination at the stated rate of application. After the spray coating has been dried, the plants are placed in the greenhouse at a temperature of approximately 15° C. and a relative atmospheric humidity of approximately 80%. 5 days later the plants are sprayed with a spore suspension of Septoria tritici. The plants remain for 48 hours in an incubation cabinet at approximately 20° C. and a relative atmospheric humidity of approximately 100% and afterwards for 60 hours at approximately 15° C. in a translucent incubation cabinet at a relative atmospheric humidity of approximately 100%. Then the plants are placed in the greenhouse at a temperature of approximately 15° C. and a relative atmospheric humidity of approximately 80%. The test is evaluated 21 days after the inoculation.

chromatographic logP [1]: 3.25
Compound: FC(F)(F)c1nc(Oc2ccc(Cl)cc2)ccc1C1(Cn2cncn2)OCCO1 [I.04, 6-(4-chlorophenoxy)-3-[2-(1,2,4-triazol-1-ylmethyl)-1,3-dioxolan-2-yl]-2-(trifluoromethyl)-pyridine]
pest or weed control at 500 ppm (Uromyces appendiculatus): 90 to 100% | pest or weed control at 500 ppm (Puccinia recondita): 90 to 100% | Efficacy in % (Sphaerotheca fuliginea [2]): 73% | Efficacy in % (Sphaerotheca fuliginea [3]; rate of application 10 ppm): 73% | Efficacy in % (Sphaerotheca fuliginea [3]; rate of application 100 ppm): 100% | pest or weed control at 500 ppm [4]: 90 to 100% | pest or weed control at 500 ppm (Sphaerotheca fuliginea [5]): 90 to 100% | Efficacy in % (Septoria tritici; rate of application 100 ppm): 86% | Efficacy in % (Septoria tritici; rate of application 500 ppm): 100%
